Laboratory results: US6699384B1, “Compact electrochemical sensor system and method for field testing for metals in saliva or other fluids” (priority 1999, dated 2004)
Where “and” joins values, the source holds several entries; their conditions need not be identical. Equal values may be shown once.

What was measured:
[1] = Pb in whole blood and saliva of rats after single acute oral doses of Pb-acetate; type: in vivo, Fisher 344 rats
Source text: Different sample pretreatment procedures for the effective release of the Pb from its binding sites in the biological fluids have been previously reviewed. (Wang, J.: Stripping analysis of trace metals in human body fluids. J. Electroanal. Chem., 139: 225-232 (1982)). It was reported that 0.5 M HCl can effectively release Pb^2+ ion from blood samples. (Nagler, R. M., Baum, B. J., and Fox, P. C.: Effect of X irradiation on the function of rat salivary glands at 3 and 40 days. Rad. Res., 136: 392-396 (1993)). In our work saliva sample was diluted 5 times with acidic solution to a final concentration of 0.5 M HCl. The sample solution was then loaded in sample reservoir and was delivered by the integrated micro-pump. The sample solution flowed across a mercury (Hg)-film working electrode and exited through an outflow groove positioned directly across the Pt auxiliary electrode. Square wave anodic stripping voltametry (SWASV) was utilized for quantitation of Pb in the specimens. For Pb detection, a constant potential of −1.10 V was applied to the glassy carbon Hg-film electrode. When sample solution flowed over the electrode surface, Pb^2+ was reduced and accumulated. After a 3-min accumulation period, the potential of the Hg-film electrode was scanned from −1.10 V to −0.10 V. To eliminate the sample matrix effect for blood and saliva samples, after the accumulation period, a clean solution (0.5 M HCl) was pumped from another reservoir and replaced the sample matrix, then the stripping analysis was performed. After each measurement the Pb was stripped from the electrode surface and the sensor was then available for analysis of the next specimen.
In order to validate the capability of the micro-analytical detection system to quantify Pb in biological specimens, rat studies were conducted using single acute oral doses of Pb-acetate. Adult male Fisher 344 rats were obtained from Charles River Laboratory and ranged from ˜0.230 to 0.260 kg of body weight when used. Groups of rats (3-5 animals/dose) were administered an aqueous solution of Pb-acetate by oral gavage at doses of 0, 20, 50, 100, 200 and 500 mg/kg of body weight. At ˜24 hr post-dosing the rats were anesthetized with an ip injection of ketamine (87 mg/kg):xylazine (13 mg/kg). In addition, each rat was given an ip injection of the cholinergic agonist pilocarpine (1 mg/kg) to induce salivation. Saliva was then collected from each rat, using a glass capillary tube, for approximately 30-min (˜1-2 mL saliva) at which time the rats were exsanguinated by cardiac puncture. Whole blood and saliva specimens were weighed and stored frozen (−80° C.) until the Pb analysis was conducted.
The concentration of Pb in the specimens was determined by inductively coupled plasma/mass spectrometry (ICP-MS). […]

[2] = Rate of salivation during pilocarpine treatment; type: in vivo, Fisher 344 rats; settings: rat, pilocarpine 1 mg/kg ip
Procedure: In order to validate the capability of the micro-analytical detection system to quantify Pb in biological specimens, rat studies were conducted using single acute oral doses of Pb-acetate. Adult male Fisher 344 rats were obtained from Charles River Laboratory and ranged from ˜0.230 to 0.260 kg of body weight when used. Groups of rats (3-5 animals/dose) were administered an aqueous solution of Pb-acetate by oral gavage at doses of 0, 20, 50, 100, 200 and 500 mg/kg of body weight. At ˜24 hr post-dosing the rats were anesthetized with an ip injection of ketamine (87 mg/kg):xylazine (13 mg/kg). […]
A PBPK model describing the disposition of Pb in the rat was modified to accommodate a saliva compartment. In general, the PBPK model structure and parameter estimations were as previously described, and the reader is referred to O'Flagherty for a detailed description of the model. […] For simplification the model assumes a constant rate of saliva secretion based on the measured rate of salivation during pilocarpine treatment (0.048 L/day), recognizing that this represents an over estimation of normal saliva flow. […] The fraction of cardiac output to the saliva gland and 1st order absorption rate for intraperitoneal (ip) Pb administration were determined by fitting the data of Mobarak and P'an. […]

Compound	blood Pb concentration ([1]; 500 mg/kg oral dose group, 24 hr post-dosing, saliva response non-linear relative to blood)	Pb in rat saliva, Results of ICP/MS ([1]; rat saliva ~24 hr after oral gavage of Pb-acetate, ICP-MS after acid digestion, individual samples 1-3)	Pb in rat saliva, Results of micro Analytical System ([1]; rat saliva ~24 hr after oral gavage of Pb-acetate, SWASV on Hg-film electrode, individual samples 1-3)	saliva Pb as percentage of the concentration in the blood ([1]; rat, oral Pb-acetate, ~24 hr post-dosing)	rate of saliva secretion [2] [L/day]
CC(=O)[O-].CC(=O)[O-].[Pb+2] [Pb, Pb-acetate]	exceeding 0.7 mg/L	99 ppb and 150 ppb and 116 ppb	80 ppb and 108 ppb and 111 ppb	8.5%-9	–
CC[C@@H]1C(=O)OC[C@@H]1Cc1cncn1C [pilocarpine]	–	–	–	–	0.048
